Assay results from patent US6147107A, “Specific inhibition of the P42/44 mitogen activated protein (map) kinase cascade sensitizes tumor cells” (priority 1998, dated 2000).

Key:
[1] = tested on: MEK1 and MEK2; details: general statement on known inhibitors; cited from earlier work
[2] = tested on: MEK1 and MEK2; experiment: Inhibition of Raf-mediated phosphorylation/activation of MEK1/2; assay type: biochemical; details: for inhibition of MEK1 and MEK2: general statement; for inhibition of Raf phosphorylation of MEK1 and MEK2: stated as demonstrated by the applicant
[3] = tested on: HepG2 hepatoma cells; experiment: TUNEL assay, HepG2 hepatoma cells after radiation; assay type: cell-based; details: SL327 (2 μM) + 2×2 Gy, 12 hours
Protocol: (§1) Experimental cells were exposed to radiation (2×2 Gy), or treated with the p42/44 MAP kinase inhibitory drug SL327 (2 μM), or treated with SL327 and exposed to radiation. Twelve hours after the final irradiation, cells were assessed by the TUNEL assay.
(§2) This is highly relevant because the neoplastic cells which are targeted for destruction by radiation therapy are rapidly proliferating, in contrast to most normal slowly growing somatic cells. Primary hepatocytes (representing slow growing "normal" cells) and HepG2 hepatoma cells derived from a cancerous cell line were cultured under identical conditions. Control cells of both types were left untreated. Matched samples of both cell types were treated with the p42/44 MAP kinase cascade inhibitory drug SL327, or exposed to radiation (2×2 Gy), or treated with SL327 and exposed to radiation. Twelve hours after the final irradiation, cells were processed and the number of dead (apoptoic) cells was determined by the TUNEL assay. […] Furthermore, the effect is specific for rapidly growing cells.

[4] = tested on: A431 cells; experiment: TUNEL assay, apoptosis of A431 cells after radiation; assay type: cell-based, human; details: 2 μM inhibitor + 2 Gy, 24 hours
Protocol: The ability of the cells to survive was assessed using TUNEL assays 24 hours after irradiation and the results are depicted in FIG. 4.

[5] = tested on: primary hepatocytes; experiment: TUNEL assay, primary hepatocytes after radiation; assay type: cell-based; details: SL327 (2 μM) + 2×2 Gy, 12 hours
Protocol: as §1, §2

[6] = tested on: cancer cells; experiment: Radiosensitization of cancer cells; assay type: cell-based; details: general statement
[7] = tested on: A431 cells
[8] = tested on: MDA-MB-231 mammary cancer cells
Protocol: To further extend these investigations, the efficacy of U0126 was tested in the mammary cancer cell line MDA-MB-23 1. As described in the previous experiment, cells were exposed to 2 μM U0126 alone, radiation (3×2 Gy) alone, or to the combination of U0126 plus radiation. Control cells were treated with vehicle alone.

[9] = tested on: HL-60 cells; experiment: Clonogenicity of HL-60 cells; assay type: cell-based, human; details: either agent alone
Protocol: FIGS. 9a and 9b. […] HL-60 cells were exposed to ara-C (10 μM) in the absence or presence of aminomethoxyflavone (PD98059; 2.5 μM) for 6 hours. Apoptotic DNA damage and cell death were assessed as described in Methods. […] FIG. 9b.
Determination of Clonogenicity: Pelleted cells were rinsed extensively and prepared for soft-agar cloning. Cells were resuspended in cold PBS and seeded in 35-mm culture plates at a fixed density (400 cell/ml/well) in complete RPMI-1640 medium containing 20% fetal calf serum, 10% 5637-CM, and 0.3% Bacto agar. Cultures were mainatined for 10 to 12 days before formation of colonies (defined as groups of ≥50 cells) was scored.

[10] = tested on: p42/44 MAP kinase; experiment: MAP kinase activity in HL-60 cells (immunoprecipitation, MBP substrate); assay type: cell-based, human; details: ara-C
Protocol: FIG. 8. […] HL-60 cells were exposed to ara-C (10 μM) in the absence or presence of aminomethoxyflavone (PD98059; 2.5 μM) for 3 hours. MAP kinase activity (p42-ERK1/p44-ERK2) was determined by in vitro assay. In each case, values reflect the mean ±SE of duplicate determinations, and are expressed as a percentage of basal activity present in untreated controls.
Determination of MAPK Activity: Pelleted cells were rinsed in PBS, repelleted, and flash-frozen. Cell pellets were lysed in 25 mM Hepes, pH 7.4 containing 5 mM EGTA, 5 mM EDTA, supplemented with protease inhibitors (5 mM benzamidine, 1 mM phenylmethylsulfonylfluoride, 1 mg/ml soybean trypsin inhibitor, 40 μg/ml aprotinin, 1 μM microcystin LR) phosphatase inhibitors (0.5 mM trisodium orthovanadate, 0.5 mM tetrasodium pyrophosphate), and containing 0.056% sodium deoxycholate w/v, 1% Triton X-100 v/v, and 0.1% 2-mercaptoethanol v/v. Lysates were clarified by centrifugation at 5,000× g at 4° C. for 5 min. MAPK activity was assayed using MBP as a substrate following immunoprecipitation of p42/44 MAP kinase with protein A/agarose-conjugated antibody/antisera. Preimmune controls were also run to ensure selectivity of substrate phosphorylation. Reaction mixtures consisted of immunoprecipitated enzyme, substrate, and [γ-^32 P] ATP ([…]) in 25 mM Hepes, pH 7.4 containing 15 mM MgCl2, […], 0.01% (v/v) 2-mercaptoethanol, 1 μM […]. Reactions were initiated by the addition of substrate. MAPK reactions were terminated by transfer to p81 filter paper; filters were rinsed repeatedly in 185 mM orhtophosphoric acid, and then dehydrated in acetone. Total radioactivity in filters was determined by liquid scintillometry.
HL-60 cells were exposed to ara-C in the absence or presence of PD98059. Following this treatment, the cells were eveluated for MAP kinase activity, DNA strand breakage, clonogenicity potential and extent of apoptosis.

[11] = tested on: HL-60 cells; experiment: Taxol-mediated apoptosis of HL-60 cells; details: Homo sapiens, HL-60, 6 h, read-out: cell death, taxol alone

Compound	mode of action at MEK1/2 [1]	inhibition of MEK1 and MEK2 [2]	inhibition of Raf phosphorylation of MEK1 and MEK2 [2]	percentage of apoptotic cells (TUNEL) [4]	radiosensitization of cancer cells [6]	further results
O=C(NOCC1CC1)c1ccc(F)c(F)c1Nc1ccc(I)cc1Cl [PD184352]	bind to MEK1/2 and sterically prevent Raf from binding	–	–	–	–	–
N#C/C(=C(/N)Sc1ccc(N)cc1)c1ccccc1C(F)(F)F [SL327]	bind to MEK1/2 and sterically prevent Raf from binding	all inhibit MEK1 and MEK2	inhibiting the ability of Raf protein kinases to phosphorylate MEK1 and MEK2	dramatic increase in the percentage of apoptotic cells	all cause radiosensitization of cancer cells	increase in cell killing compared to radiation alone [3]: approximately 2.5 fold; response to combined drug/radiation treatment (TUNEL) [3]: effectively killed; response to combined drug/radiation therapy (TUNEL) [5]: fairly resistant
N#CC(=C(N)Sc1ccccc1N)C(C#N)=C(N)Sc1ccccc1N [U0126, 1,4-diamino-2,3-dicyano-1,4-bis[2-aminophenylthio]butadiene]	bind to MEK1/2 and sterically prevent Raf from binding	all inhibit MEK1 and MEK2	inhibiting the ability of Raf protein kinases to phosphorylate MEK1 and MEK2	dramatic increase in the percentage of apoptotic cells	all cause radiosensitization of cancer cells	abolishing cellular proliferation versus U0126 alone or irradiation alone (MTT) ([7]; 2 μM U0126 + 3×2 Gy): markedly more effective; proliferative rate (MTT) ([7]; 2 μM U0126 alone or with 3×2 Gy, 4-8 days): Decreased proliferative rate; decreasing cellular proliferative potential versus either treatment alone (MTT) ([8]; 2 μM U0126 + 3×2 Gy): far more effective; proliferative rate (MTT) ([8]; 2 μM U0126 alone or with 3×2 Gy, 3-4 days): Decreased proliferative rate
Cl.Nc1ccn([C@@H]2O[C@H](CO)[C@@H](O)[C@@H]2O)c(=O)n1 [ara-C, 1-[β-D-arabinofuranosyl] cytosine hydrochloride]	–	–	–	–	–	clonogenic potential, single agent [9]: neither alone had this effect; MAP kinase activity, effect of ara-C [10]: stimulation of MAP kinase
CC(=O)O[C@H]1C(=O)[C@@]2(C)[C@H]([C@H](OC(=O)c3ccccc3)[C@]3(O)C[C@H](OC(=O)[C@H](O)[C@@H](NC(=O)c4ccccc4)c4ccccc4)C(C)=C1C3(C)C)[C@]1(OC(C)=O)CO[C@@H]1C[C@@H]2O [taxol]	–	–	–	–	–	cytotoxicity at 0.5 µM [11]: ~27%
